Literature values, collected in patent publication US20250295156A1, “LOADED GRANULES, THEIR PROCESS OF PRODUCTION AND THEIR USES” (Evie SA, priority 2019, published 2025).

Legend:
[1] = humans, orally; no reported psychomotor slowing, negative mood effects, or vital sign abnormalities (Bergamaschi et al., 2011)
cannabinoid CB2 receptor = cannabinoid CB2 receptor (Homo sapiens, UniProt P34972)
cannabinoid CB2 receptor, sequence (P34972 whole entry): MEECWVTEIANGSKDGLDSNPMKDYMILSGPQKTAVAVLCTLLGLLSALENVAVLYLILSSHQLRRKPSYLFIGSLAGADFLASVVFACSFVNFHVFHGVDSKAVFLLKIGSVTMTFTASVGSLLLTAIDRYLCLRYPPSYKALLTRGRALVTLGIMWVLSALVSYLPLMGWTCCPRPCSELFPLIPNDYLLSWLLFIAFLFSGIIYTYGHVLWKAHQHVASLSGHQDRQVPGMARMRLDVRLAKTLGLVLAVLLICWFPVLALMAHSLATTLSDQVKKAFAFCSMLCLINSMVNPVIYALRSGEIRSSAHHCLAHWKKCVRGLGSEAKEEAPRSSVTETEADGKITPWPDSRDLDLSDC

For `C=C(C)[C@@H]1CCC(C)=C[C@H]1c1c(O)cc(CCCCC)cc1O` [Cannabidiol], the well tolerated dose [1] is listed as “up to 1500 mg/day” and the “affinity for CB2 receptor” value (cannabinoid CB2 receptor) is listed as “very low affinity”.
